Test results from paper PMC9706920, “Aryloxypropanolamine targets amyloid aggregates and reverses Alzheimer-like phenotypes in Alzheimer mouse models” (Alzheimer's Research & Therapy, 2022).

Legend:
Aβ(1–42) aggregates [1] = biological target: T1, Aβ(1–42) aggregates (Homo sapiens, UniProt P05067); assay: In vitro dot blot assay with oligomer-specific antibody A11; format: biochemical; conditions: Aβ(1–42) disaggregation samples, Fig. S1
T1 construct: made in house; host or cells: chemical synthesis (Fmoc solid phase peptide synthesis)
Procedure: (§1) To analyze total and oligomeric amyloid levels, protein samples (12 μg in 2 μL) and prepared in vitro disaggregation assay samples (2 μL) were directly blotted on nitrocellulose membranes. After blocking with 5% skim milk in TBS-T, the membranes were probed with anti-6E10 antibody (1:1,000, Biolegend 803003) and anti-A11 antibody (1:2000, Invitrogen AHB0052) at 4°C overnight. HRP-conjugated goat anti-mouse antibody (1:10,000, Bethyl Laboratories A90-116P) and anti-rabbit secondary antibody (1:10,000, Bethyl Laboratories A120-101P) were used for 6E10 and A11, respectively. Proteins were detected using an ECL kit (Thermo Fisher Scientific, USA). Membranes were washed with TBS-T in between steps, three times for 10 min.

Aβ(1–42) aggregates [2] = biological target: T1, Aβ(1–42) aggregates; assay: ThT fluorescence Aβ(1–42) disaggregation assay; format: biochemical; conditions: for Decrease of fibrillar Aβ(1–42) aggregates (ThT fluorescence): Aβ(1–42) 25 μM pre-aggregated 37°C 3 days, compound added for additional 3 days, concentration of the printed value not stated; for EC50: pre-aggregated Aβ(1–42) 25 μM, 3 + 3 days, 37°C
Procedure: (§2) ThT fluorescence was used to assess the in vitro inhibition of Aβ(1–42) and disaggregation of Aβ(1–42), Aβ(1–40), Aβ(pE3-42), recombinant tau K18, and tau repeats R1, R2, R3, R4 by YIAD compounds. In house synthetic Aβ(1–42) was dissolved in DMSO (1 mM, 100% DMSO) and diluted to 20-fold in deionized water to make 50 μM Aβ(1–42) stocks (5% DMSO). YIAD compounds were first dissolved in DMSO (100 mM, 100% DMSO) and serially diluted with deionized water to make YIAD stocks with concentrations of 1, 10, 100, and 1000 μM (10% DMSO). For the Aβ(1–42) inhibition assay, monomeric Aβ(1–42) stocks and YIAD stocks were co-incubated at 37°C for 3 days. For Aβ(1–42) disaggregation assay, monomeric Aβ(1–42) stocks were preincubated at 37°C for three days to form Aβ(1–42) aggregates, and subsequently, YIAD stocks were added for an additional 3 days. For Aβ(1-40) disaggregation assays, Aβ(1–40) (50 μM, 5% DMSO) was preincubated at 37°C for 3 days to induce aggregation, and co-incubated with YIAD001 and YIAD002 for an additional 3 days. For Aβ(pE3-42) disaggregation assays, in house synthetic Aβ(pE3-42) (50 μM, 5% DMSO) was preincubated at 37°C for 1 day and co-incubated with YIAD002 for an additional 3 days. For tau K18 disaggregation assay, recombinant tau K18 fragments (35 μM) were dissolved in PBS with 0.1 mg/mL of heparin and 100 μM of DTT, then pre-aggregated at 37°C for 3 days. Then, YIAD stocks were added to aggregated K18 fragments for an additional 3 days. For tau repeat disaggregation assays, tau repeats (R1, R2, R3, R4) (35 μM) were dissolved in PBS with 0.1 mg/mL of heparin and 100 μM of DTT, then pre-aggregated at 37°C for 1 day. Then, YIAD002 was added to aggregated repeats for an additional 3 days. Prior to fluorescence intensity measurement, ThT solution (5 μM) was prepared by dissolving ThT, purchased from Sigma-Aldrich (MO, USA) in 50 mM glycine buffer (pH 8.5). To quantify the effect of inhibition and disaggregation, 25 μL of all samples and 75 μL of ThT solution were loaded into a half-area 96-well black plate in triplicate.

5XFAD mice = assay: Dot blot assay (6E10, A11) of soluble brain lysates of 5XFAD mice, incl. MWCO filtration; format: in vivo, mouse; conditions: 50 mg/kg/day, 5 weeks; for Total Aβ (6E10) in cortical lysates after GdnHCl denaturation and 100 kDa MWCO filtration: APP removed
Procedure: To test the in vivo efficacy of YIAD001 and YIAD002, female 5XFAD mice (n = 25) and female wildtype mice (n = 7) were assessed at the age of 4.5 months. YIAD compounds were dissolved in DMSO and diluted in drinking water to a final concentration of 50 mg/kg/day (5% DMSO, 5% Tween) for oral administration. The three compounds, YIAD001, YIAD002, and YIAD003, were freely administered via drinking water to 4.5-month-old 5XFAD mice (n = 6 for each group) for 5 weeks. As a control, 5% DMSO, 5% Tween in drinking water was provided ad libitum to littermate 5XFAD mice (n = 7) and wildtype mice (n = 7) for 5 weeks.
After the administration period, the mice were deeply anaesthetized with 4% avertin through intraperitoneal injection and transcardially perfused with 0.9% saline. Subsequently, the mice were sacrificed for brain excision. Each collected brain was divided through the mid-sagittal section; the hippocampal and cortical regions were dissected from one half and stored at −80°C for subsequent brain lysates, while the other half was immersed in 4% paraformaldehyde (pH 7.4) for 24 h and 30% sucrose for 48 h at 4°C and subsequently deep-froze at −80°C for immunohistochemistry.
Isolated cortical and hippocampal tissue samples were homogenized in ice-cold RIPA buffer with protease inhibitor cocktail and phosphatase inhibitor cocktail. Lysed tissues were incubated in ice for 30 min and subsequently centrifuged at 14,000 rpm at 4°C for 30 min. The supernatants of the brain lysates were collected and soluble protein concentrations were quantified with the Pierce BCA protein assay kit (Thermo Fisher Scientific, USA).
as §1
To exclusively investigate soluble Aβ levels in cortical lysates, guanidinium hydrochloride (GdnHCl) in a lysis buffer (5.0 M GdnHCl, 50 mM Tris-HCl, pH 8.0) was utilized to solubilize and denature endogenous Aβ aggregates prior to filtration. The homogenates were incubated with agitation for 3 h at RT. The incubated samples were then quantified to prepare protein samples (10 μg in 4 μL) and were filtered through a 100 kDa molecular weight cut-off (MWCO) filter, centrifuged at 14,000 rpm at RT for 30 min, to remove APP. For subsequent dot blot assay, total […] of the filtrate was spotted onto a nitrocellulose membrane and probed with anti-6E10 antibody (1:1000, Biolegend 803003).

Aβ(1–40) aggregates = biological target: T2, Aβ(1–40) aggregates (Homo sapiens, UniProt P05067); assay: ThT fluorescence Aβ(1–40) disaggregation assay; format: biochemical; conditions: 500 μM compound, Aβ(1–40) 25 μM pre-aggregated 3 days, co-incubated additional 3 days
T2 construct: Aβ(1–40), […]; […]; made in house; host or cells: chemical synthesis (Fmoc solid phase peptide synthesis)
Procedure: as §2, with “For Aβ(pE3-42) disaggregation assays, in house synthetic Aβ(pE3-42) (50 μM, 5% DMSO) was preincubated at 37°C for 1 day and co-incubated with YIAD002 for an additional 3 days. For tau K18 disaggregation assay, recombinant tau K18 fragments (35 μM) were dissolved in PBS with 0.1 mg/mL of heparin and 100 μM of DTT, then pre-aggregated at 37°C for 3 days. Then, YIAD stocks were added to aggregated K18 fragments for an additional 3 days. For tau repeat disaggregation assays, tau repeats (R1, R2, R3, R4) (35 μM) were dissolved in PBS with 0.1 mg/mL of heparin and 100 μM of DTT, then pre-aggregated at 37°C for 1 day. Then, YIAD002 was added to aggregated repeats for an additional 3 days.” left out

Aβ(1–42) = biological target: T3, Aβ(1–42) (Homo sapiens, UniProt P05067); assay: ThT fluorescence Aβ(1–42) aggregation inhibition assay; format: biochemical; conditions: compounds at 0.5, 5, 50, 500 μM co-incubated with monomeric Aβ(1–42) 25 μM, 37°C, 3 days; concentration of the printed value not stated
T3 construct: Synthesized monomeric Aβ(1–42), […]; […]; IA; made in house; host or cells: chemical synthesis (Fmoc solid phase peptide synthesis)
Procedure: as §2

T1 sequence (P05067 672-713 limits assumed): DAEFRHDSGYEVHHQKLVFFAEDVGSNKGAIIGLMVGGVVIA
T2 sequence (P05067 672-711): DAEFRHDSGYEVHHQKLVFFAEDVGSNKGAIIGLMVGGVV
T3 sequence (P05067 672-713 limits assumed): as the sequence (P05067 672-713 limits assumed) above

Row | SMILES | A11-detected amyloid oligomers, in vitro disaggregation (Aβ(1–42) aggregates [1]) | melting point [°C] | Decrease of fibrillar Aβ(1–42) aggregates (ThT fluorescence) (Aβ(1–42) aggregates [2]) [%] | EC50 (Aβ(1–42) aggregates [2]) [µM] | Total Aβ (6E10) in cortical lysates after GdnHCl denaturation and 100 kDa MWCO filtration (5XFAD mice) | 6E10-detected total Aβ, cortical lysates (5XFAD mice; soluble fraction) | 6E10-detected total Aβ, hippocampus (5XFAD mice; soluble fraction) | A11-detected oligomer levels, cortical lysates (5XFAD mice; soluble fraction) | Oligomeric Aβ content (A11), hippocampus (5XFAD mice; soluble fraction) | Decrease of Aβ(1–40) aggregates (ThT fluorescence) (Aβ(1–40) aggregates) [%] | Inhibition of Aβ(1–42) fibrillation (ThT fluorescence) (Aβ(1–42)) [%]
1 | CCC(C)(C)c1ccc(OCC(O)CN2CCCC2)c(C(C)(C)CC)c1.Cl (stereo not drawn) [YIAD002, 1-(3-(2,4-Di-tert-pentylphenoxy)-2-hydroxypropyl)pyrrolidin-1-ium chloride] | dissociate Aβ(1–42) aggregates | 179.8 to 180.7 | 99.94 | 16.9 | reduction of Aβ | significantly reduced | not significantly changed | trend of reduction | significantly reduced | 83.35 | 98.15
2 | CCC(C)(C)c1ccc(OCC(O)CN2CCOCC2)c(C(C)(C)CC)c1.Cl (stereo not drawn) [YIAD001, 4-(3-(2,4-Di-tert-pentylphenoxy)-2-hydroxypropyl)morpholin-4-ium chloride] | dissociate Aβ(1–42) aggregates | 192.5 to 193.1 | 82.61 | 91.8 | reduction of Aβ | significantly reduced | not significantly changed | trend of reduction | – | 58.98 | 82.55
